ChEMBL document CHEMBL1159031, “Cytotoxic quassinoids from Cedronia granatensis” (1992)

Tests used:
Assay type in all cases: functional
[1] = system: CCRF-CEM; experiment: Cytotoxicity against human CCRF-CEM cells; settings: read-out: Log10LC50 (converted)
[2] = system: HL-60(TB); experiment: Cytotoxicity against human HL-60(TB) cells; settings: read-out: Log10LC50 (converted)
[3] = system: K562; experiment: Cytotoxicity against human K562 cells; settings: read-out: Log10LC50 (converted)
[4] = system: MOLT-4; experiment: Cytotoxicity against human MOLT4 cells; settings: read-out: Log10LC50 (converted)
[5] = system: RPMI-8226; experiment: Cytotoxicity against human RPMI8226 cells; settings: read-out: Log10LC50 (converted)
[6] = system: SR; experiment: Cytotoxicity against human SR cells; settings: read-out: Log10LC50 (converted)
[7] = system: A549; experiment: Cytotoxicity against human A549 cells; settings: read-out: Log10LC50 (converted)
[8] = system: EKVX; experiment: Cytotoxicity against human EKVX cells; settings: read-out: Log10LC50 (converted)
[9] = system: HOP-18; experiment: Cytotoxicity against human HOP18 cells; settings: read-out: Log10LC50 (converted)
[10] = system: HOP-62; experiment: Cytotoxicity against human HOP62 cells; settings: read-out: Log10LC50 (converted)
[11] = system: HOP-92; experiment: Cytotoxicity against human HOP92 cells; settings: read-out: Log10LC50 (converted)
[12] = system: NCI-H226; experiment: Cytotoxicity against human NCI-H226 cells; settings: read-out: Log10LC50 (converted)
[13] = system: NCI-H23; experiment: Cytotoxicity against human NCI-H23 cells; settings: read-out: Log10LC50 (converted)
[14] = Cytotoxicity against human NCI-H322 cells; settings: read-out: Log10LC50 (converted)
[15] = system: NCI-H460; experiment: Cytotoxicity against human NCI-H460 cells; settings: read-out: Log10LC50 (converted)
[16] = system: NCI-H522; experiment: Cytotoxicity against human NCI-H522 cells; settings: read-out: Log10LC50 (converted)
[17] = Cytotoxicity against human LXFL 529L cells; settings: read-out: Log10LC50 (converted)
[18] = system: DMS-114; experiment: Cytotoxicity against human DMS114 cells; settings: read-out: Log10LC50 (converted)
[19] = system: DMS-273; experiment: Cytotoxicity against human DMS273 cells; settings: read-out: Log10LC50 (converted)
[20] = system: COLO 205; experiment: Cytotoxicity against human COLO205 cells; settings: read-out: Log10LC50 (converted)
[21] = system: HCC 2998; experiment: Cytotoxicity against human HCC2998 cells; settings: read-out: Log10LC50 (converted)
[22] = system: HCT-116; experiment: Cytotoxicity against human HCT116 cells; settings: read-out: Log10LC50 (converted)
[23] = system: HCT-15; experiment: Cytotoxicity against human HCT15 cells; settings: read-out: Log10LC50 (converted)
[24] = system: HT-29; experiment: Cytotoxicity against human HT-29 cells; settings: read-out: Log10LC50 (converted)
[25] = system: KM12; experiment: Cytotoxicity against human KM12 cells; settings: read-out: Log10LC50 (converted)
[26] = system: KM-20L2; experiment: Cytotoxicity against human KM20L2 cells; settings: read-out: Log10LC50 (converted)
[27] = system: SW-620; experiment: Cytotoxicity against human SW620 cells; settings: read-out: Log10LC50 (converted)
[28] = system: SF-268; experiment: Cytotoxicity against human SF268 cells; settings: read-out: Log10LC50 (converted)
[29] = system: SF-295; experiment: Cytotoxicity against human SF295 cells; settings: read-out: Log10LC50 (converted)
[30] = system: SF-539; experiment: Cytotoxicity against human SF539 cells; settings: read-out: Log10LC50 (converted)
[31] = system: SNB-19; experiment: Cytotoxicity against human SNB19 cells; settings: read-out: Log10LC50 (converted)
[32] = system: SNB-75; experiment: Cytotoxicity against human SNB75 cells; settings: read-out: Log10LC50 (converted)
[33] = system: SNB-78; experiment: Cytotoxicity against human SNB78 cells; settings: read-out: Log10LC50 (converted)
[34] = system: U-251; experiment: Cytotoxicity against human U251 cells; settings: read-out: Log10LC50 (converted)
[35] = system: XF498; experiment: Cytotoxicity against human XF498 cells; settings: read-out: Log10LC50 (converted)
[36] = system: LOX IMVI; experiment: Cytotoxicity against human LOXIMVI cells; settings: read-out: Log10LC50 (converted)
[37] = system: Malme-3M; experiment: Cytotoxicity against human MALME-3M cells; settings: read-out: Log10LC50 (converted)
[38] = system: M14; experiment: Cytotoxicity against human M14 cells; settings: read-out: Log10LC50 (converted)
[39] = system: SK-MEL-2; experiment: Cytotoxicity against human SK-MEL-2 cells; settings: read-out: Log10LC50 (converted)
[40] = system: SK-MEL-28; experiment: Cytotoxicity against human SK-MEL-28 cells; settings: read-out: Log10LC50 (converted)
[41] = system: SK-MEL-5; experiment: Cytotoxicity against human SK-MEL-5 cells; settings: read-out: Log10LC50 (converted)
[42] = system: UACC-257; experiment: Cytotoxicity against human UACC257 cells; settings: read-out: Log10LC50 (converted)
[43] = system: UACC-62; experiment: Cytotoxicity against human UACC62 cells; settings: read-out: Log10LC50 (converted)
[44] = system: IGROV-1; experiment: Cytotoxicity against human IGROV1 cells; settings: read-out: Log10LC50 (converted)
[45] = system: OVCAR-3; experiment: Cytotoxicity against human OVCAR-3 cells; settings: read-out: Log10LC50 (converted)
[46] = system: OVCAR-4; experiment: Cytotoxicity against human OVCAR4 cells; settings: read-out: Log10LC50 (converted)
[47] = system: OVCAR-5; experiment: Cytotoxicity against human OVCAR5 cells; settings: read-out: Log10LC50 (converted)
[48] = system: OVCAR-8; experiment: Cytotoxicity against human OVCAR8 cells; settings: read-out: Log10LC50 (converted)
[49] = system: SK-OV-3; experiment: Cytotoxicity against human SKOV3 cells; settings: read-out: Log10LC50 (converted)
[50] = Cytotoxicity against human 786-O cells; settings: 786-0, read-out: Log10LC50 (converted)
[51] = system: A498; experiment: Cytotoxicity against human A498 cells; settings: read-out: Log10LC50 (converted)
[52] = system: ACHN; experiment: Cytotoxicity against human ACHN cells; settings: read-out: Log10LC50 (converted)
[53] = system: CAKI-1; experiment: Cytotoxicity against human Caki1 cells; settings: read-out: Log10LC50 (converted)
[54] = system: RXF 393; experiment: Cytotoxicity against human RXF393 cells; settings: read-out: Log10LC50 (converted)
[55] = system: SN12C; experiment: Cytotoxicity against human SN12C cells; settings: read-out: Log10LC50 (converted)
[56] = system: TK-10; experiment: Cytotoxicity against human TK10 cells; settings: read-out: Log10LC50 (converted)
[57] = system: UO-31; experiment: Cytotoxicity against human UO31 cells; settings: read-out: Log10LC50 (converted)
[58] = system: DLD-1; experiment: Cytotoxicity against human DLD1 cells; settings: read-out: Log10LC50 (converted)
[59] = system: M19-MEL; experiment: Cytotoxicity against human M19-MEL cells; settings: read-out: Log10LC50 (converted)
[60] = Cytotoxicity against human RXF631 cells; settings: RXF 631, read-out: Log10LC50 (converted)

In the case of `COC(=O)[C@@]12OC[C@]34[C@H]([C@@H](O)[C@@H]1O)[C@@]1(C)[C@H](O)C(=O)C=C(C)[C@@H]1C[C@H]3OC(=O)[C@H](OC(C)=O)[C@@H]24` [ISOBRUCEIN B], the CC50 [1] is reported as 42.7 µM, the CC50 [2] is reported as 0.347 µM and the CC50 [3] is reported as 11 µM. The CC50 [4] was 42.7 µM, the CC50 [5] was 42.7 µM and the CC50 [6] was 42.7 µM. It also gave a CC50 [7] of 42.7 µM, a CC50 [8] of 42.7 µM and a CC50 [9] of 42.7 µM. The CC50 [10] was 42.7 µM, the CC50 [11] was 42.7 µM and the CC50 [12] was 14.1 µM. It also gave a CC50 [13] of 3.47 µM, a CC50 [14] of 42.7 µM and a CC50 [15] of 14.1 µM. The CC50 [16] was 6.17 µM, the CC50 [17] was 42.7 µM and the CC50 [18] was 1.91 µM. It also gave a CC50 [19] of 2.69 µM, a CC50 [20] of 5.75 µM and a CC50 [21] of 1.58 µM. For the same molecule, the CC50 [22] was 18.2 µM, the CC50 [23] was 33.1 µM and the CC50 [24] was 42.7 µM. It also gave a CC50 [25] of 20.9 µM, a CC50 [26] of 42.7 µM and a CC50 [27] of 39.8 µM. For the same molecule, the CC50 [28] was 40.7 µM, the CC50 [29] was 32.4 µM and the CC50 [30] was 1.29 µM. The CC50 [31] was 42.7 µM, the CC50 [32] was 14.1 µM and the CC50 [33] was 42.7 µM. It also gave a CC50 [34] of 42.7 µM, a CC50 [35] of 12 µM and a CC50 [36] of 8.51 µM. The CC50 [37] was 3.02 µM, the CC50 [38] was 2.29 µM and the CC50 [39] was 7.08 µM. For the same molecule, the CC50 [40] was 3.39 µM, the CC50 [41] was 2.09 µM and the CC50 [42] was 20.9 µM. It also gave a CC50 [43] of 5.37 µM, a CC50 [44] of 42.7 µM and a CC50 [45] of 42.7 µM. For the same molecule, the CC50 [46] was 11 µM, the CC50 [47] was 42.7 µM and the CC50 [48] was 21.9 µM. It also gave a CC50 [49] of 42.7 µM, a CC50 [50] of 33.1 µM and a CC50 [51] of 5.75 µM. The CC50 [52] was 42.7 µM, the CC50 [53] was 42.7 µM and the CC50 [54] was 10 µM. For the same molecule, the CC50 [55] was 42.7 µM, the CC50 [56] was 42.7 µM and the CC50 [57] was 42.7 µM. The CC50 [58] was 42.7 µM, the CC50 [59] was 4.79 µM and the CC50 [60] was 42.7 µM.
With `COC(=O)[C@]12OC[C@]34[C@H]([C@@H](O)[C@@H]1O)[C@@]1(C)C=C5OC(=O)C=C5[C@@H](C)[C@@H]1C[C@H]3OC(=O)[C@H](OC(C)=O)[C@@H]24` [SERGEOLIDE] the CC50 [1] was 3.98 µM, the CC50 [2] was 0.0575 µM and the CC50 [3] was 3.98 µM. For the same molecule, the CC50 [4] was 3.89 µM, the CC50 [5] was 3.98 µM and the CC50 [6] was 3.98 µM. For the same molecule, the CC50 [7] was 3.98 µM, the CC50 [8] was 0.891 µM and the CC50 [9] was 3.98 µM. The CC50 [10] was 1.91 µM, the CC50 [11] was 3.98 µM and the CC50 [12] was 0.0661 µM. It also gave a CC50 [13] of 0.0708 µM, a CC50 [14] of 3.98 µM and a CC50 [15] of 0.457 µM. It also gave a CC50 [16] of 0.0158 µM, a CC50 [17] of 0.0676 µM and a CC50 [18] of 0.0363 µM. It also gave a CC50 [19] of 0.11 µM, a CC50 [20] of 0.0219 µM and a CC50 [21] of 0.0288 µM. It also gave a CC50 [22] of 0.129 µM, a CC50 [23] of 1.91 µM and a CC50 [24] of 3.8 µM. For the same molecule, the CC50 [25] was 0.437 µM, the CC50 [26] was 3.98 µM and the CC50 [27] was 3.98 µM. For the same molecule, the CC50 [28] was 2.09 µM, the CC50 [29] was 0.38 µM and the CC50 [30] was 0.0257 µM. The CC50 [31] was 3.98 µM, the CC50 [32] was 0.0389 µM and the CC50 [33] was 2.51 µM. For the same molecule, the CC50 [34] was 3.98 µM, the CC50 [35] was 0.0589 µM and the CC50 [36] was 0.288 µM. For the same molecule, the CC50 [37] was 0.012 µM, the CC50 [38] was 0.0209 µM and the CC50 [39] was 0.0269 µM. It also gave a CC50 [40] of 0.12 µM, a CC50 [41] of 0.00661 µM and a CC50 [42] of 0.0589 µM. It also gave a CC50 [43] of 0.0324 µM, a CC50 [44] of 3.98 µM and a CC50 [45] of 3.98 µM. It also gave a CC50 [46] of 0.0447 µM, a CC50 [47] of 3.31 µM and a CC50 [48] of 0.776 µM. It also gave a CC50 [49] of 3.98 µM, a CC50 [50] of 0.407 µM and a CC50 [51] of 0.0575 µM. The CC50 [52] was 3.39 µM, the CC50 [53] was 3.98 µM and the CC50 [54] was 0.0513 µM. It also gave a CC50 [55] of 3.98 µM, a CC50 [56] of 3.98 µM and a CC50 [57] of 2.88 µM. The CC50 [58] was 3.24 µM, the CC50 [59] was 0.0199 µM and the CC50 [60] was 3.72 µM.
